Test results published in PubChem BioAssay AID2060616 (Molecular Pharmacology Branch, DTP, NCI, 2025).
pIC50: −log10 of the molar value. “And” between values parts separate entries of the source, which are not always exact repeats. Identical values can stand only once.

Test system: 377384-186-R-J1-PDC complex spheroid viability
Assay: Anticancer human tumor 377384-186-R-J1-PDC patient-derived pancreatic carcinoma cell line growth inhibition [CLK]
Conditions: for viability, T/C: stronger effect = lower value
How it was run: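 Multi-cell-type spheroids combined patient-derived tumor cells with HUVEC endothelial cells and human mesenchymal stem cells. Paired agents were dosed in half-log steps down from about clinical Cmax, or from 10 microM where Cmax was unknown.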

[1] = curve of first compound, second compound 0.0316 µM
[2] = curve of first compound, second compound 0.1 µM
[3] = curve of first compound, second compound 0.316 µM
[4] = curve of first compound, second compound 1 µM
[5] = curve of first compound, second compound 3.16 µM
[6] = curve of first compound, second compound 10 µM
[7] = second compound 0.0316 µM, first compound 0.00316 µM
[8] = second compound 0.0316 µM, first compound 0.01 µM
[9] = second compound 0.0316 µM, first compound 0.0316 µM
[10] = second compound 0.0316 µM, first compound 0.1 µM
[11] = second compound 0.0316 µM, first compound 0.316 µM
[12] = second compound 0.0316 µM, first compound 1 µM
[13] = second compound 0.1 µM, first compound 0.00316 µM
[14] = second compound 0.1 µM, first compound 0.01 µM
[15] = second compound 0.1 µM, first compound 0.0316 µM
[16] = second compound 0.1 µM, first compound 0.1 µM
[17] = second compound 0.1 µM, first compound 0.316 µM
[18] = second compound 0.1 µM, first compound 1 µM
[19] = second compound 0.316 µM, first compound 0.00316 µM
[20] = second compound 0.316 µM, first compound 0.01 µM
[21] = second compound 0.316 µM, first compound 0.0316 µM
[22] = second compound 0.316 µM, first compound 0.1 µM
[23] = second compound 0.316 µM, first compound 0.316 µM
[24] = second compound 0.316 µM, first compound 1 µM
[25] = second compound 1 µM, first compound 0.00316 µM
[26] = second compound 1 µM, first compound 0.01 µM
[27] = second compound 1 µM, first compound 0.0316 µM
[28] = second compound 1 µM, first compound 0.1 µM
[29] = second compound 1 µM, first compound 0.316 µM
[30] = second compound 1 µM, first compound 1 µM
[31] = second compound 3.16 µM, first compound 0.00316 µM
[32] = second compound 3.16 µM, first compound 0.01 µM
[33] = second compound 3.16 µM, first compound 0.0316 µM
[34] = second compound 3.16 µM, first compound 0.1 µM
[35] = second compound 3.16 µM, first compound 0.316 µM
[36] = second compound 3.16 µM, first compound 1 µM
[37] = second compound 10 µM, first compound 0.00316 µM
[38] = second compound 10 µM, first compound 0.01 µM
[39] = second compound 10 µM, first compound 0.0316 µM
[40] = second compound 10 µM, first compound 0.1 µM
[41] = second compound 10 µM, first compound 0.316 µM
[42] = second compound 10 µM, first compound 1 µM
[43] = second compound 0.0316 µM, first compound 3.16 µM
[44] = second compound 0.0316 µM, first compound 10 µM
[45] = second compound 0.1 µM, first compound 3.16 µM
[46] = second compound 0.1 µM, first compound 10 µM
[47] = second compound 0.316 µM, first compound 3.16 µM
[48] = second compound 0.316 µM, first compound 10 µM
[49] = second compound 1 µM, first compound 3.16 µM
[50] = second compound 1 µM, first compound 10 µM
[51] = second compound 3.16 µM, first compound 3.16 µM
[52] = second compound 3.16 µM, first compound 10 µM
[53] = second compound 10 µM, first compound 3.16 µM
[54] = second compound 10 µM, first compound 10 µM
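Note: spheroids exposed to agents for 7 days before reading.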
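Throughout, for viability, T/C: luminescence signal used as a stand-in for viable cells.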

CCc1c2c(nc3ccc(O)cc13)-c1cc3c(c(=O)n1C2)COC(=O)[C@]3(O)CC + CNC(=O)c1ccc(Nc2nc(OC3CCCC3)c3c(-c4ccc5nc(C)oc5c4)c[nH]c3n2)c(OC)c1
pIC50 [1]: > 8.50 | pIC50 [2]: > 8.50 | pIC50 [3]: > 8.50 | pIC50 [4]: > 8.50 | pIC50 [5]: > 8.50 | pIC50 [6]: > 8.50 | viability, T/C [7]: 25.8% | viability, T/C [8]: 11.6% | viability, T/C [9]: 4.72% | viability, T/C [10]: 2.28% | viability, T/C [11]: 1.46% | viability, T/C [12]: 0.55% | viability, T/C [13]: 17.5% | viability, T/C [14]: 9.08% | viability, T/C [15]: 4.28% | viability, T/C [16]: 2.07% | viability, T/C [17]: 1.21% | viability, T/C [18]: 0.63% | viability, T/C [19]: 10.7% | viability, T/C [20]: 7% | viability, T/C [21]: 3.57% | viability, T/C [22]: 2.54% | viability, T/C [23]: 1.19% | viability, T/C [24]: 0.53% | viability, T/C [25]: 12.9% | viability, T/C [26]: 8.91% | viability, T/C [27]: 3.7% | viability, T/C [28]: 1.76% | viability, T/C [29]: 1.06% | viability, T/C [30]: 0.66% | viability, T/C [31]: 14.4% | viability, T/C [32]: 8.07% | viability, T/C [33]: 3.3% | viability, T/C [34]: 1.8% | viability, T/C [35]: 1.68% | viability, T/C [36]: 0.58% | viability, T/C [37]: 13.4% | viability, T/C [38]: 8.53% | viability, T/C [39]: 3.76% | viability, T/C [40]: 1.55% | viability, T/C [41]: 0.98% | viability, T/C [42]: 0.79%

Nc1ccn(C2OC(CO)C(O)C2(F)F)c(=O)n1 (stereo not given)
viability, T/C (compound 0.0316 µM): 10.8% and 6.86% | viability, T/C (compound 0.1 µM): 4.28% and 3.83% | viability, T/C (compound 0.316 µM): 5.62% and 2.98% | viability, T/C (compound 1 µM): 2.41% and 2.75% | viability, T/C (compound 3.16 µM): 3.34% and 2.18% | viability, T/C (compound 10 µM): 2.14% and 1.73% | pIC50 (curve of compound): > 7.50

Cn1ncnc1[C@H]1c2n[nH]c(=O)c3cc(F)cc(c23)N[C@@H]1c1ccc(F)cc1 + CN1CCN(c2cc(C(=O)Nc3cc4cc(-c5cnn(C)c5)ccc4cn3)ccn2)CC1
pIC50 [1]: < 7.00 | pIC50 [2]: 7.30 | pIC50 [3]: > 9.50 | pIC50 [4]: > 9.50 | pIC50 [5]: > 9.50 | pIC50 [6]: > 9.50 | viability, T/C (second compound 0.0316 µM, first compound 0.000316 µM): 90.4% | viability, T/C (second compound 0.0316 µM, first compound 0.001 µM): 77.8% | viability, T/C [7]: 74.8% | viability, T/C [8]: 65.6% | viability, T/C [9]: 55.4% | viability, T/C [10]: 52.1% | viability, T/C (second compound 0.1 µM, first compound 0.000316 µM): 88.1% | viability, T/C (second compound 0.1 µM, first compound 0.001 µM): 81.2% | viability, T/C [13]: 70.4% | viability, T/C [14]: 58.9% | viability, T/C [15]: 53.9% | viability, T/C [16]: 46% | viability, T/C (second compound 0.316 µM, first compound 0.000316 µM): 21.2% | viability, T/C (second compound 0.316 µM, first compound 0.001 µM): 23.7% | viability, T/C [19]: 25.9% | viability, T/C [20]: 22.4% | viability, T/C [21]: 21.9% | viability, T/C [22]: 18.6% | viability, T/C (second compound 1 µM, first compound 0.000316 µM): 0.86% | viability, T/C (second compound 1 µM, first compound 0.001 µM): 0.77% | viability, T/C [25]: 1.08% | viability, T/C [26]: 0.85% | viability, T/C [27]: 0.82% | viability, T/C [28]: 1.53% | viability, T/C (second compound 3.16 µM, first compound 0.000316 µM): 0.25% | viability, T/C (second compound 3.16 µM, first compound 0.001 µM): 0.59% | viability, T/C [31]: 1.07% | viability, T/C [32]: 0.33% | viability, T/C [33]: 0.69% | viability, T/C [34]: 0.48% | viability, T/C (second compound 10 µM, first compound 0.000316 µM): 0.45% | viability, T/C (second compound 10 µM, first compound 0.001 µM): 1.52% | viability, T/C [37]: 0.56% | viability, T/C [38]: 1.45% | viability, T/C [39]: 0.51% | viability, T/C [40]: 0.39%

C=C(F)C(=O)N1CCN(c2nc(OCC3CCCN3C)nc3c2CCN(c2cccc4cccc(Cl)c24)C3)CC1CC#N (stereo not given) + CNC(=O)c1ccc(Nc2nc(OC3CCCC3)c3c(-c4ccc5nc(C)oc5c4)c[nH]c3n2)c(OC)c1
pIC50 [1]: 5.69 | pIC50 [2]: 6.84 | pIC50 [3]: > 7.50 | pIC50 [4]: > 7.50 | pIC50 [5]: > 7.50 | pIC50 [6]: > 7.50 | viability, T/C [9]: 99.6% | viability, T/C [10]: 93.8% | viability, T/C [11]: 102% | viability, T/C [12]: 96.6% | viability, T/C [43]: 22.3% | viability, T/C [44]: 0.88% | viability, T/C [15]: 54.3% | viability, T/C [16]: 50.9% | viability, T/C [17]: 45.7% | viability, T/C [18]: 40.4% | viability, T/C [45]: 23.1% | viability, T/C [46]: 0.37% | viability, T/C [21]: 21.2% | viability, T/C [22]: 22.8% | viability, T/C [23]: 20.7% | viability, T/C [24]: 22.1% | viability, T/C [47]: 12% | viability, T/C [48]: 0.26% | viability, T/C [27]: 19.5% | viability, T/C [28]: 19.3% | viability, T/C [29]: 19% | viability, T/C [30]: 17.9% | viability, T/C [49]: 11.1% | viability, T/C [50]: 0.2% | viability, T/C [33]: 20.5% | viability, T/C [34]: 20.9% | viability, T/C [35]: 18.3% | viability, T/C [36]: 20.3% | viability, T/C [51]: 8.66% | viability, T/C [52]: 0.22% | viability, T/C [39]: 20.6% | viability, T/C [40]: 21.4% | viability, T/C [41]: 21.9% | viability, T/C [42]: 17.1% | viability, T/C [53]: 8.61% | viability, T/C [54]: 0.3%

C=CC(=O)N1CCN(c2nc(=O)n(-c3c(C)ccnc3C(C)C)c3nc(-c4c(O)cccc4F)c(F)cc23)C(C)C1 (stereo not given) + CNC(=O)c1ccc(Nc2nc(OC3CCCC3)c3c(-c4ccc5nc(C)oc5c4)c[nH]c3n2)c(OC)c1
pIC50 [1]: < 5.00 | pIC50 [2]: 5.56 | pIC50 [3]: > 7.50 | pIC50 [4]: > 7.50 | pIC50 [5]: > 7.50 | pIC50 [6]: > 7.50 | viability, T/C [9]: 108% | viability, T/C [10]: 111% | viability, T/C [11]: 99.1% | viability, T/C [12]: 111% | viability, T/C [43]: 116% | viability, T/C [44]: 91.7% | viability, T/C [15]: 62.5% | viability, T/C [16]: 64.7% | viability, T/C [17]: 56.4% | viability, T/C [18]: 68.6% | viability, T/C [45]: 48.3% | viability, T/C [46]: 36% | viability, T/C [21]: 22.9% | viability, T/C [22]: 18.9% | viability, T/C [23]: 20.5% | viability, T/C [24]: 25% | viability, T/C [47]: 24% | viability, T/C [48]: 21.4% | viability, T/C [27]: 20.2% | viability, T/C [28]: 20.1% | viability, T/C [29]: 18.3% | viability, T/C [30]: 21.3% | viability, T/C [49]: 23.1% | viability, T/C [50]: 21.5% | viability, T/C [33]: 23.6% | viability, T/C [34]: 23.5% | viability, T/C [35]: 22% | viability, T/C [36]: 24.5% | viability, T/C [51]: 26.1% | viability, T/C [52]: 23.1% | viability, T/C [39]: 18.7% | viability, T/C [40]: 18.3% | viability, T/C [41]: 18.4% | viability, T/C [42]: 20.3% | viability, T/C [53]: 23.8% | viability, T/C [54]: 19.7%
